Reference: patent US20130202724A1, “SOYBEAN EXTRACTS FOR THE TREATMENT OF HEPATIC DISORDERS” (Hadasit Medical Research Services and Development Ltd., priority 2010, published 2013)

Assays:
[1] = test system: ConA-challenged C57BL-6 mice; test: ConA-induced hepatotoxicity with soybean-derived extracts (Example 6); format: in vivo; details: combinations 1:1, especially 0.3 and 3 μg per mouse
Procedure: Either two (Example 1 (A)) or three (Example 1 (B)) groups of mice (10 mice per group) were studied. ConA was dissolved in 50 mM Tris (pH 7), 150 mM NaCl, and 4 mM CaCl2. To induce autoimmune hepatitis, mice were injected i.v. with 20 mg/kg ConA. Control mice were injected with PBS. A specified dosage of […] or vehicle was administered to the mice orally […] before (Example 1 (A)) or 30 min after (Example 1 (B)) they had received an injection of ConA. The mice were sacrificed 16 h (Example 1 (A)) or 17 h (Example 1 (B)) later. For Example 4 (ConA challenge in different […] extracts), six groups of 4-5 11-12 weeks old male C57BL/6 mice were treated per os for three days with extracts as show in Table 4. The mice were injected i.v. (tail vein) 500 μg of ConA, (20 mg/kg body weight) and sacrificed 14 h later. After sacrifice measurements of serum IFN-γ was carried out using ELISA. […] Serum ALT and AST activities were determined and serum levels of IFN-γ and TNF-α were measured. […] Serum levels of IFN-γ, TNF-α, and IL-6 were determined by “sandwich” ELISA using commercial kits according to the manufacturer's instructions. […] Serum ALT and AST activities were determined and serum levels of IFN-γ and TNF-α were measured.

[2] = test system: HFD-fed mice; test: HFD obese mouse model with soybean extracts M1, OS and combinations (Example 7); format: in vivo
Procedure: Five mice per experimental group were fed HFD diet, comprising 42% calories from fat. The mice were administered the indicated extracts per os 3 times a week for three months, and then sacrificed. The mice weight, fasting glucose levels, ALT, serum triglycerides (TGs) and cholesterol were determined every 2 weeks. Glucose Tolerance Test was performed after 4 and 12 weeks. On sacrifice day, serum and a liver biopsy were collected for determination of serum insulin levels, liver TG and for H&E histological analysis.
After sacrifice, measurements of serum ALT and AST activities were carried out, and serum levels of IFN-γ, TNF-α and insulin were determined.
TGs were extracted from aliquots of snap-frozen livers using a modification of the Folch method. Hepatic TG content was assayed spectrophotometrically using a GPO-Trinder kit and was normalized to the protein content in the homogenate.
Plasma TG and total cholesterol were measured by a clinical chemistry analyzer, the Reflovet Plus machine.
Fasting glucose levels were measured after overnight (12 h) fasting. Serum glucose measurements were performed on tail-vein blood by a standard glucometer.
Mice underwent a GTT after overnight fasting. Glucose was administered orally (1.25 g/kg body weight). Serum glucose measurements were performed on tail-vein blood every 15 min for 3 h. Glucose levels were measured by a standard glucometer.
Serum insulin levels were determined using a commercially available ELISA kit (Mercodia), according to the manufacturer's instructions. Serum was collected from euthanized mice on the day of sacrifice (after 12 h fasting) and kept in −80° C. until analysis.
Serum levels of IFN-γ, TNF-α, and IL-6 were determined by “sandwich” ELISA using commercial kits according to the manufacturer's instructions.
Flow cytometry was performed following splenocyte and hepatic lymphocyte isolation using 1×10^6 lymphocytes in 100 μl PBS with 0.1% BSA. For surface staining, cells were incubated with fluorochrome-conjugated antibodies to the indicated cell surface markers at the recommended dilutions or with isotype control antibodies for 30 minutes at 4° C. The following cell surface anti-mouse antibodies were used: CD4/CD3-Pacific Blue, CD25/NK1.1-PE and CD8-FITC. Cells were then washed in PBS containing 1% BSA and fixed with fixation buffer for another 50 minutes. For intracellular staining of Foxp3, fixed cells were permeabilized with Foxp3 staining buffer. Cells were then stained with PE-Cy7-conjugated antibodies to Foxp3, washed twice and resuspended in 250 μl of PBS containing 1% BSA and kept at 4° C. One million stained cells in 250 μl of PBS containing 1% BSA were subsequently analyzed using a FACS LSR II instrument with FCS express V.3 software. Only live cells were counted, and background fluorescence from non-antibody-treated lymphocytes was subtracted.
A HFD obese mouse model was therefore used to assess the hepatoprotective action of the soybean extracts M1, OS and their combinations. Young (6-7 weeks old) male C57BL/6 mice (5 mice per experimental group) were fed HFD diet ad libitum for 12 weeks. The mice were administered the indicated soybean extracts or combinations per os 3 times a week for the duration of the experiment. After 12 weeks, the mice were sacrificed. During the experiment the mice weight, fasting glucose level, ALT, serum triglycerides (TGs) and cholesterol were measured every 2 weeks, and glucose tolerance test was carried out after the fourth and twelfth weeks. On sacrifice day, serum samples and livers were collected. Serum TNF-α and insulin were determined, hepatic TG were measured and a liver section stained with H&E was prepared and analyzed. A FACS analysis of splenic T regulatory and NKT cells was also performed.

Q: With glucosylceramide [GC] as the substance, how does the “hepatic protection (liver enzymes and serum IFN-γ and TNF-α), summary” value [1] read?
A: Its value is “significant decrease”.

Q: What about the “effectiveness over all tested parameters, summary” value ([2]; HFD model, combinations 1:1, 0.3 μg and 3 μg per mouse) of the same substance?
A: Its value is “effective but not in all tested parameters”.

Q: And the fasting glucose levels ([2]; M1/OS mixtures (both doses), GC 25 μg, vs control mice)?
A: The fasting glucose levels was “significantly lower”.

Q: And the GTT results ([2]; after 12 weeks in HFD, vs control and OS-treated mice)?
A: Its GTT results is “marked improvement”.

Q: What about the “liver lipid accumulation (H&E stained liver sections)” value ([2]; both M1/OS mixture doses (0.3 μg each and 3 μg each), GC 25 μg) of the same substance?
A: Its value is “striking improvement”.

Q: And the “hepatic TG levels” value ([2]; single agents (M1 3 μg, GC 25 μg), week 12, vs control mice)?
A: Its value is “no clear effect”.

Q: And the fasting insulin levels ([2]; single agents (OS 3 μg, GC 25 μg, M1 3 μg), week 12)?
A: Its fasting insulin levels is “lowest”.
